Data: patent US10669272B2, “Substituted naphthyridinone compounds useful as T cell activators” (BRISTOL-MYERS SQUIBB COMPANY, priority 2018, dated 2020)
Where two headings read alike, the source gives them in different places.

What was measured:
human DGKα = target: T1, human DGKα (Homo sapiens, UniProt P23743); test: DGKα LIPGLO assay (extruded liposome substrate), in vitro DGK inhibition; assay type: biochemical; conditions: read-out: DGKa LIPGLO IC50
T1 construct: TVMV protease cleavage site (C); Hexa-His (C); made in house; host or cells: Sf9 insect cells (baculovirus, Bac-to-Bac)

human DGKζ = target: T2, human DGKζ (Homo sapiens, UniProt Q13574); test: DGKζ LIPGLO assay (extruded liposome substrate), in vitro DGK inhibition; assay type: biochemical; conditions: read-out: DGKz LIPGLO IC50
T2 construct: TVMV protease cleavage site (C); Hexa-His (C); made in house; host or cells: Sf9 insect cells (baculovirus, Bac-to-Bac)

Human venous whole blood = test: Human whole blood IFN-γ assay; assay type: cell-based; conditions: human whole blood, read-out: INFg Whole Blood Normalized Agonist EC50;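 also: blood from healthy donors exposed to compound for 1 h before stimulation with anti-CD3 and anti-CD28 at 1 µg/mL each, IFN-γ quantified in supernatant by AlphaLISA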
[1] = normalized to 3 μM reference compound with anti-CD3 plus anti-CD28 as 100% activation
[2] = Homo sapiens, 24 h, anti-CD3 plus anti-CD28, 24 hours, 3 μM reference compound = 100% activation
[3] = Homo sapiens, 24 h, normalized to 3 μM reference compound with anti-CD3 plus anti-CD28 as 100% activation
[4] = anti-CD3 plus anti-CD28, 24 hours, 3 μM reference compound = 100% activation

T2 sequence (Q13574 with tags, fused parts or gaps isoform Q13574-4): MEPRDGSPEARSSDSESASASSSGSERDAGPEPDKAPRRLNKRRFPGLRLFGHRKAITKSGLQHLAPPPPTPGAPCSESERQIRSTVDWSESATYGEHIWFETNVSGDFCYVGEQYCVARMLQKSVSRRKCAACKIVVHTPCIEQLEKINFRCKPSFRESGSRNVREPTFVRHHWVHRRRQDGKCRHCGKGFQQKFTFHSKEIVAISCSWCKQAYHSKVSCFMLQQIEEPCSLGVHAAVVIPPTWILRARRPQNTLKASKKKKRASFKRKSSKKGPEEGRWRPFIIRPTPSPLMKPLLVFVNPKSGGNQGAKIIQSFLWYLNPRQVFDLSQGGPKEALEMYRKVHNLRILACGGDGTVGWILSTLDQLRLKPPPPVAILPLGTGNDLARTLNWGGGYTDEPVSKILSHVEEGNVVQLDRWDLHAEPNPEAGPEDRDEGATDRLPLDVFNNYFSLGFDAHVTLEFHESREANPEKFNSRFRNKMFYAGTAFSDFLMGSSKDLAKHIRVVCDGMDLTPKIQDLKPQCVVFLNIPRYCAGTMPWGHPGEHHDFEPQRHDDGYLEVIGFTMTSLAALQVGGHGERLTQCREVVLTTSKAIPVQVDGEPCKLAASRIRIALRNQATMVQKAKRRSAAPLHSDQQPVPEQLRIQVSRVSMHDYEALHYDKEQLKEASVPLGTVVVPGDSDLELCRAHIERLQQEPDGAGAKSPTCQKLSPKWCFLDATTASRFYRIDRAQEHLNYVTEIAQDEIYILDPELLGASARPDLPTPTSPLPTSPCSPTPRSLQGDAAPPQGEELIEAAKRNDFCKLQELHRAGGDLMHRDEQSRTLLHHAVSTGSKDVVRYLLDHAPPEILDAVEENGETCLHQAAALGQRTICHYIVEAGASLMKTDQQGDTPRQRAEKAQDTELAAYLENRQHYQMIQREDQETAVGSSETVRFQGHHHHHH
T1 sequence (P23743 with tags, fused parts or gaps): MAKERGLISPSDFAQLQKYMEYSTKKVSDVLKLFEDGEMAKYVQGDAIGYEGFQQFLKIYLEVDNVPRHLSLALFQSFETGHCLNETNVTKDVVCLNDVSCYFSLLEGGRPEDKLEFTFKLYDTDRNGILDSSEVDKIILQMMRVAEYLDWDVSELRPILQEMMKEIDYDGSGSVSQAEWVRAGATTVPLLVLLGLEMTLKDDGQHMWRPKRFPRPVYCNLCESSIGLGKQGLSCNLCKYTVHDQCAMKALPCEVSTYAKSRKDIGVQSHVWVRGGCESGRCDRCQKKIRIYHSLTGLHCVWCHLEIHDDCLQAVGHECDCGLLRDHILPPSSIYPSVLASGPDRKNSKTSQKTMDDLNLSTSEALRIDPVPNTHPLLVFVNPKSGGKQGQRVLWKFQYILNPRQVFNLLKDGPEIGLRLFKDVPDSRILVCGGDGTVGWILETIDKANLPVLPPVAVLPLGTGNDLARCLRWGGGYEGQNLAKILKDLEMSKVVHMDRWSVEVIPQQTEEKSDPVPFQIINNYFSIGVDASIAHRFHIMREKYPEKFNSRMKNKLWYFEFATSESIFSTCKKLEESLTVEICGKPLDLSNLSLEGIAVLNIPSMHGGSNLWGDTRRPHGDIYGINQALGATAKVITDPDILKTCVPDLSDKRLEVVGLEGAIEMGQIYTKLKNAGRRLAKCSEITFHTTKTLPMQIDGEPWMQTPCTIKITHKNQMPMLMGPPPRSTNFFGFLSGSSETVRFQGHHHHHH

SMILES | IC50 (human DGKα; liposome (LIPGLO) assay) [nM] | IC50 (human DGKζ; liposome (LIPGLO) assay) [nM] | IC50 (human DGKα; DGKα liposome (LIPGLO) assay) [nM] | IC50 (human DGKζ; DGKζ liposome (LIPGLO) assay) [nM] | EC50 (Human venous whole blood; [1]) [nM] | EC50 (Human venous whole blood; [2]) [nM] | EC50 (Human venous whole blood; [3]) [nM] | EC50 (Human venous whole blood; [4]) [nM]
CC(c1ccc(C#N)cc1)N1CCN(c2c(C#N)c(=O)n(C)c3ccc(C#N)nc23)C[C@H]1C (stereo partly drawn) [Example 954] |  |  | 130 | 6500 |  | 20000 |  | 
Cc1ccc(C(c2ccc(F)cc2)N2CCN(c3c(C#N)c(=O)n(C)c4ccc(C#N)nc34)C[C@H]2C)cc1 (stereo partly drawn) [Example 888] |  |  | 510 | 330 |  | 1200 |  | 
C[C@@H]1CN(c2c(C#N)c(=O)n(C)c3ccc(C#N)nc23)CCN1C(c1ccc(F)cc1)c1cccc2c1OC(F)(F)O2 (single isomer, unassigned) [Example 940] |  |  | 25000 | 7200 |  |  |  | 2200
Cc1ccc(C(c2cccc(Cl)c2)N2C[C@H](C)N(c3cc(=O)n(C)c4ccc(C#N)nc34)C[C@H]2C)nc1 (stereo partly drawn) [Example 398, 8-((2S,5R)-4-((3-chlorophenyl)(5-methylpyridin-2-yl)methyl)-2,5-dimethylpiperazin-1-yl)-5-methyl-6-oxo-5,6-dihydro-1,5-naphthyridine-2-carbonitrile] | 1100 | 1400 |  |  |  |  | 410 | 
CC(c1ccc2nccnc2c1)N1C[C@H](C)N(c2cc(=O)n(C)c3ccc(C#N)nc23)C[C@H]1C (single isomer, unassigned) [Example 650] | 2500 | 11 |  |  | 290 |  |  | 
C[C@@H]1CN(c2c(C#N)c(=O)n(C)c3ccc(C#N)nc23)[C@@H](C)CN1C(c1ccc(F)cc1)c1ccc(C#N)cc1 (single isomer, unassigned) [Example 823] |  |  | 18000 | 40000 |  |  |  | 7600
C[C@@H]1CN(c2c(C#N)c(=O)n(C)c3ccc(C#N)nc23)[C@@H](C)CN1C(c1ccccc1)c1cc(F)cc(F)c1 (single isomer, unassigned) [Example 813] |  |  | 85000 | 3700 |  |  |  | 20000
C[C@@H]1CN(c2cc(=O)n(C)c3ccc(C#N)nc23)[C@@H](C)CN1Cc1ccc(C(C)(C)C)cc1 [Example 587] | 4600 | 6600 |  |  |  |  | 2300 | 
CC(c1ccc(OC(F)(F)F)cc1)N1C[C@H](C)N(c2c(C#N)c(=O)n(C)c3ccc(C#N)nc23)C[C@H]1C (single isomer, unassigned) [Example 802] |  |  | 1300 | 24000 |  |  |  | 10000
C[C@@H]1CN(c2cc(=O)n(C)c3ccc(C#N)nc23)[C@@H](C)CN1C(c1ccc(Cl)cc1)c1ccccn1 (single isomer, unassigned) [Example 382] | 220 | 2500 |  |  | 2600 |  |  | 
CC(c1ccc(F)cc1)N1CCN(c2c(C#N)c(=O)n(C)c3ccc(C#N)nc23)C[C@H]1C (single isomer, unassigned) [Example 957] |  |  | 260 | 8600 |  |  |  | 1700
C[C@@H]1CN(c2c(C#N)c(=O)n(C)c3ccc(C#N)nc23)CCN1Cc1ccc(Cl)cc1 [Example 1011] |  |  | 1200 | 8300 |  | 20000 |  | 
C[C@@H]1CN(c2cc(=O)n(C)c3ccc(C#N)nc23)[C@@H](C)CN1C(c1ccc(F)cc1)c1ncccn1 (stereo partly drawn) [Example 676] | 62 | 5400 |  |  |  |  | 1800 | 
CC(c1ccccc1F)N1C[C@H](C)N(c2c(C#N)c(=O)n(C)c3ccc(C#N)nc23)C[C@H]1C (single isomer, unassigned) [Example 797] |  |  | 1800 | 8600 |  |  |  | 1800
CCC(c1cc(Cl)cc2c1OCC2)N1C[C@H](C)N(c2cc(=O)n(C)c3ccc(C#N)nc23)C[C@H]1C (single isomer, unassigned) [Example 356] | > 250000 | 420 |  |  |  |  | 20000 | 
Cc1ccc(C(C)N2C[C@H](C)N(c3c(C#N)c(=O)n(C)c4ccc(C#N)nc34)C[C@H]2C)cc1 (single isomer, unassigned) [Example 784] |  |  | 1200 | 2600 |  |  |  | 2000
Cc1cccc(C(C)N2CCN(c3c(C#N)c(=O)n(C)c4ccc(C#N)nc34)C[C@H]2C)n1 (stereo partly drawn) [Example 964] |  |  | 1900 | 32000 |  | 13000 |  | 
C[C@@H]1CN(c2c(C#N)c(=O)n(C)c3ccc(C#N)nc23)CCN1C(c1ccc(F)cc1)c1ccnc(C(C)(C)C)n1 (stereo partly drawn) [Example 321, 8-((3R)-4-((2-(tert-butyl)pyrimidin-4-yl)(4-fluorophenyl)methyl)-3-methylpiperazin-1-yl)-5-methyl-6-oxo-5,6-dihydro-1,5-naphthyridine-2,7-dicarbonitrile] | 4300 | 240 |  |  |  |  | 950 | 
C[C@@H]1CN(c2c(C#N)c(=O)n(C)c3ccc(C#N)nc23)CCN1C(c1cccc(Cl)c1)c1ccc(F)cn1 (stereo partly drawn) [Example 926] |  |  | 2500 | 4000 |  | 1200 |  | 
CC(c1c(F)cccc1F)N1C[C@H](C)N(c2c(C#N)c(=O)n(C)c3ccc(C#N)nc23)C[C@H]1C (single isomer, unassigned) [Example 780] |  |  | 1500 | 31000 |  | 14000 |  | 

The next lines start with results.

IC50 (human DGKα; liposome (LIPGLO) assay) [nM] | IC50 (human DGKζ; liposome (LIPGLO) assay) [nM] | IC50 (human DGKα; DGKα liposome (LIPGLO) assay) [nM] | IC50 (human DGKζ; DGKζ liposome (LIPGLO) assay) [nM] | SMILES | EC50 (Human venous whole blood; [1]) [nM] | EC50 (Human venous whole blood; [2]) [nM] | EC50 (Human venous whole blood; [3]) [nM] | EC50 (Human venous whole blood; [4]) [nM]
830 | 110 |  |  | CCC(c1ccc(C2CC2)cc1F)N1C[C@H](CC)N(c2cc(=O)n(C)c3ccc(C#N)nc23)C[C@H]1CC (single isomer, unassigned) [Example 1360] | 700 |  |  | 
5600 | 670 |  |  | CC(c1ccc2c(c1)OCCO2)N1C[C@H](C)N(c2cc(=O)n(C)c3ccc(C#N)nc23)C[C@H]1C (single isomer, unassigned) [Example 1259] | 4900 |  |  | 
9500 | 1600 |  |  | CC[C@@H]1CN(c2cc(=O)n(C)c3ccc(C#N)nc23)[C@@H](C)CN1Cc1ccc(C(F)(F)F)cc1C(F)(F)F [Example 1197] |  |  | 3500 | 
270 | 160 |  |  | CC[C@@H]1CN(c2cc(=O)n(C)c3ccc(C#N)nc23)[C@@H](C)CN1C(c1ccc(F)cc1)c1nc(C2CC2)cs1 (single isomer, unassigned) [Example 1339] | 100 |  |  | 
20000 | 1700 |  |  | COc1ccc(C(C)N2C[C@H](C)N(c3cc(=O)n(C)c4ccc(C#N)nc34)C[C@H]2C)cc1C(F)(F)F (stereo partly drawn) [Example 1250] | 18000 |  |  | 
990 | 1100 |  |  | CCC(c1ccc(OC(F)(F)F)cc1)N1C[C@H](C)N(c2cc(=O)n(C)c3ccc(C#N)nc23)C[C@H]1CC (single isomer, unassigned) [Example 1198] | 1700 |  |  | 
110 | 95 |  |  | CCC(c1ccc(C2CC2)cc1)N1C[C@H](C)N(c2cc(=O)n(C)c3ccc(C#N)nc23)C[C@H]1C (single isomer, unassigned) [Example 1220] | 120 |  |  | 
 |  | 1400 | 8200 | C[C@@H]1CN(c2c(C#N)c(=O)n(C)c3ccc(C#N)nc23)CCN1Cc1ccc(Cl)c(F)c1 [Example 1015] |  | 2700 |  | 
370 | 1100 |  |  | CC[C@H]1CN(C(c2ccc(F)cc2)c2ccc(C#N)cc2)[C@H](CC)CN1c1cc(=O)n(C)c2ccc(C#N)nc12 (stereo partly drawn) [Example 1035] |  |  | 290 | 
700 | 1600 |  |  | CC[C@H]1CN(C(C)c2ccc(OC(F)(F)F)cc2)[C@H](C)CN1c1cc(=O)n(C)c2ccc(C#N)nc12 (single isomer, unassigned) [Example 1142] | 1200 |  |  | 
20000 | 2200 |  |  | C[C@@H]1CN(c2cc(=O)n(C)c3ccc(C#N)nc23)[C@@H](C)CN1C(c1ccc(F)cc1)C(C)(C)O (single isomer, unassigned) [Example 1308] | 2100 |  |  | 
14000 | 1800 |  |  | C[C@@H]1CN(c2cc(=O)n(C)c3ccc(C#N)nc23)[C@@H](C)CN1C(c1ccc(F)cc1)C1CCS(=O)(=O)CC1 (single isomer, unassigned) [Example 1300] |  |  | 7000 | 
150 | 29 |  |  | CC[C@H]1CN(C(C)c2ccc(C(F)(F)F)cc2F)[C@H](CC)CN1c1cc(=O)n(C)c2ccc(C#N)nc12 (single isomer, unassigned) [Example 1364] | 58 |  |  | 
180 | 360 |  |  | CC(c1csc(C(F)(F)F)n1)N1C[C@H](C)N(c2cc(=O)n(C)c3ccc(C#N)nc23)C[C@H]1C (single isomer, unassigned) [Example 1273] |  |  | 1700 | 
170 | 2900 |  |  | CC[C@H]1CN(C(C)c2ccc(OC)cc2)[C@H](CC)CN1c1cc(=O)n(C)c2ccc(C#N)nc12 (single isomer, unassigned) [Example 1367] | 1900 |  |  | 
10000 | 980 |  |  | Cc1ccc(C(c2ccc(C)cc2)N2C[C@@H](C)N(c3cc(=O)n(C)c4ccc(C#N)nc34)C[C@@H]2CO)cc1 [Example 1173] |  |  | 1400 | 
1600 | 45000 |  |  | C[C@@H]1CN(c2cc(=O)n(C)c3ccc(C#N)nc23)[C@@H](C)CN1C1(c2ccc(F)cc2)CC1 [Example 1454, 8-((2S,5R)-4-(1-(4-fluorophenyl)cyclopropyl)-2,5-dimethylpiperazin-1-yl)-5-methyl-6-oxo-5,6-dihydro-1,5-naphthyridine-2-carbonitrile] |  |  | 10000 | 
440 | 2200 |  |  | C[C@@H]1CN(c2c(C#N)c(=O)n(C)c3ccc(C#N)nc23)CCN1C(c1ccc(F)cc1)c1nccs1 (single isomer, unassigned) [Example 1024] |  |  | 1200 | 
